According to the supplement of paper PMC10307832:

Columns and labels:
Test in all cases: relative viability (nuclei count vs DMSO), 5 days (fraction); higher = more cells survive
XMD14-99 = compound: CN1CCN(CC1)C2=CC(=C(C=C2)NC3=NC(=C(S3)C(=O)C4=C(C=CC=C4Cl)Cl)N)OC [XMD14-99]
Summary of the method: (§1)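 For viability, nuclei in each treated well were divided by nuclei in vehicle wells and the median across plates was taken. Lung cancer cell lines in 1536-well plates were pinned with five library-drug doses (not always all listed) spaced by √10, cultured 5 days without medium change, and imaged at 4× after Hoechst staining, with plates passing only at control CV below 25% and at least one doubling.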

AZD1208 = compound: N[C@@H]1CCCN(c2c(/C=C3\SC(=O)NC3=O)cccc2-c2ccccc2)C1 [AZD1208]
Summary of the method: as §1

XMD14-99 + Luminespib = compound: CN1CCN(CC1)C2=CC(=C(C=C2)NC3=NC(=C(S3)C(=O)C4=C(C=CC=C4Cl)Cl)N)OC [XMD14-99] + CCNC(=O)c1noc(-c2cc(C(C)C)c(O)cc2O)c1-c1ccc(CN2CCOCC2)cc1 [Luminespib] (partner 0.01 µM)
Summary of the method: (§2)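 Dosing by pin tool came one day after lung cancer cell lines were seeded in 1536-well plates, using either one drug or a fixed anchor-drug dose plus five library-drug doses (not always all listed) in √10 steps. After 5 days, nuclei were counted on 4× images. Relative viability is treated-well nuclei count divided by vehicle-well nuclei count, and values are medians of duplicate plates.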

XMD14-99 + Foretinib = compound: CN1CCN(CC1)C2=CC(=C(C=C2)NC3=NC(=C(S3)C(=O)C4=C(C=CC=C4Cl)Cl)N)OC [XMD14-99] + COc1cc2c(Oc3ccc(NC(=O)C4(C(=O)Nc5ccc(F)cc5)CC4)cc3F)ccnc2cc1OCCCN1CCOCC1 [Foretinib] (partner 0.25 µM)
Summary of the method: as §2

XMD14-99 + OSI-027 = compound: CN1CCN(CC1)C2=CC(=C(C=C2)NC3=NC(=C(S3)C(=O)C4=C(C=CC=C4Cl)Cl)N)OC [XMD14-99] + COc1cccc2cc(-c3nc([C@H]4CC[C@H](C(=O)O)CC4)n4ncnc(N)c34)[nH]c12 [OSI-027] (partner 0.5 µM)
Summary of the method: as §2

XMD14-99 + Tozasertib = compound: CN1CCN(CC1)C2=CC(=C(C=C2)NC3=NC(=C(S3)C(=O)C4=C(C=CC=C4Cl)Cl)N)OC [XMD14-99] + Cc1cc(Nc2cc(N3CCN(C)CC3)nc(Sc3ccc(NC(=O)C4CC4)cc3)n2)n[nH]1 [Tozasertib] (partner 0.1 µM)
Summary of the method: as §2

XMD14-99 + Dasatinib = compound: CN1CCN(CC1)C2=CC(=C(C=C2)NC3=NC(=C(S3)C(=O)C4=C(C=CC=C4Cl)Cl)N)OC [XMD14-99] + Cc1nc(Nc2ncc(C(=O)Nc3c(C)cccc3Cl)s2)cc(N2CCN(CCO)CC2)n1 [Dasatinib] (partner 0.075 µM)
Summary of the method: as §2

XMD14-99 + Phenformin = compound: CN1CCN(CC1)C2=CC(=C(C=C2)NC3=NC(=C(S3)C(=O)C4=C(C=CC=C4Cl)Cl)N)OC [XMD14-99] + N=C(N)NC(=N)NCCc1ccccc1 [Phenformin] (partner 250 µM)
Summary of the method: as §2

AZD1208 + Luminespib = compound: N[C@@H]1CCCN(c2c(/C=C3\SC(=O)NC3=O)cccc2-c2ccccc2)C1 [AZD1208] + CCNC(=O)c1noc(-c2cc(C(C)C)c(O)cc2O)c1-c1ccc(CN2CCOCC2)cc1 [Luminespib] (partner 0.01 µM)
Summary of the method: as §2

AZD1208 + Foretinib = compound: N[C@@H]1CCCN(c2c(/C=C3\SC(=O)NC3=O)cccc2-c2ccccc2)C1 [AZD1208] + COc1cc2c(Oc3ccc(NC(=O)C4(C(=O)Nc5ccc(F)cc5)CC4)cc3F)ccnc2cc1OCCCN1CCOCC1 [Foretinib] (partner 0.25 µM)
Summary of the method: as §2

AZD1208 + OSI-027 = compound: N[C@@H]1CCCN(c2c(/C=C3\SC(=O)NC3=O)cccc2-c2ccccc2)C1 [AZD1208] + COc1cccc2cc(-c3nc([C@H]4CC[C@H](C(=O)O)CC4)n4ncnc(N)c34)[nH]c12 [OSI-027] (partner 0.5 µM)
Summary of the method: as §2

AZD1208 + Tozasertib = compound: N[C@@H]1CCCN(c2c(/C=C3\SC(=O)NC3=O)cccc2-c2ccccc2)C1 [AZD1208] + Cc1cc(Nc2cc(N3CCN(C)CC3)nc(Sc3ccc(NC(=O)C4CC4)cc3)n2)n[nH]1 [Tozasertib] (partner 0.1 µM)
Summary of the method: as §2

AZD1208 + Dasatinib = compound: N[C@@H]1CCCN(c2c(/C=C3\SC(=O)NC3=O)cccc2-c2ccccc2)C1 [AZD1208] + Cc1nc(Nc2ncc(C(=O)Nc3c(C)cccc3Cl)s2)cc(N2CCN(CCO)CC2)n1 [Dasatinib] (partner 0.075 µM)
Summary of the method: as §2

AZD1208 + Phenformin = compound: N[C@@H]1CCCN(c2c(/C=C3\SC(=O)NC3=O)cccc2-c2ccccc2)C1 [AZD1208] + N=C(N)NC(=N)NCCc1ccccc1 [Phenformin] (partner 250 µM)
Summary of the method: as §2

NCI-H1623
relative viability (XMD14-99; 0.08 µM): 0.959 | relative viability (XMD14-99; 0.8 µM): 0.99 | relative viability (XMD14-99; 2.53 µM): 1.01 | relative viability (XMD14-99; 8 µM): 0.804 | relative viability (AZD1208; 0.08 µM): 0.984 | relative viability (AZD1208; 0.253 µM): 0.912 | relative viability (AZD1208; 0.8 µM): 0.764 | relative viability (AZD1208; 2.53 µM): 0.871 | relative viability (AZD1208; 8 µM): 0.746 | relative viability (XMD14-99 + Luminespib; first compound 0.08 µM): 0.509 | relative viability (XMD14-99 + Luminespib; first compound 0.8 µM): 0.475 | relative viability (XMD14-99 + Luminespib; first compound 2.53 µM): 0.454 | relative viability (XMD14-99 + Luminespib; first compound 8 µM): 0.444 | relative viability (XMD14-99 + Foretinib; first compound 0.08 µM): 0.852 | relative viability (XMD14-99 + Foretinib; first compound 0.8 µM): 0.86 | relative viability (XMD14-99 + Foretinib; first compound 2.53 µM): 0.88 | relative viability (XMD14-99 + Foretinib; first compound 8 µM): 0.68 | relative viability (XMD14-99 + OSI-027; first compound 0.08 µM): 0.434 | relative viability (XMD14-99 + OSI-027; first compound 0.8 µM): 0.43 | relative viability (XMD14-99 + OSI-027; first compound 2.53 µM): 0.392 | relative viability (XMD14-99 + OSI-027; first compound 8 µM): 0.396 | relative viability (XMD14-99 + Tozasertib; first compound 0.08 µM): 0.429 | relative viability (XMD14-99 + Tozasertib; first compound 0.8 µM): 0.429 | relative viability (XMD14-99 + Tozasertib; first compound 2.53 µM): 0.38 | relative viability (XMD14-99 + Tozasertib; first compound 8 µM): 0.394 | relative viability (XMD14-99 + Dasatinib; first compound 0.08 µM): 0.542 | relative viability (XMD14-99 + Dasatinib; first compound 0.8 µM): 0.515 | relative viability (XMD14-99 + Dasatinib; first compound 2.53 µM): 0.516 | relative viability (XMD14-99 + Dasatinib; first compound 8 µM): 0.504 | relative viability (XMD14-99 + Phenformin; first compound 0.08 µM): 0.573 | relative viability (XMD14-99 + Phenformin; first compound 0.8 µM): 0.613 | relative viability (XMD14-99 + Phenformin; first compound 2.53 µM): 0.584 | relative viability (XMD14-99 + Phenformin; first compound 8 µM): 0.54 | relative viability (AZD1208 + Luminespib; first compound 0.08 µM): 0.444 | relative viability (AZD1208 + Luminespib; first compound 0.253 µM): 0.393 | relative viability (AZD1208 + Luminespib; first compound 0.8 µM): 0.365 | relative viability (AZD1208 + Luminespib; first compound 2.53 µM): 0.324 | relative viability (AZD1208 + Luminespib; first compound 8 µM): 0.372 | relative viability (AZD1208 + Foretinib; first compound 0.08 µM): 0.838 | relative viability (AZD1208 + Foretinib; first compound 0.253 µM): 0.763 | relative viability (AZD1208 + Foretinib; first compound 0.8 µM): 0.801 | relative viability (AZD1208 + Foretinib; first compound 2.53 µM): 0.837 | relative viability (AZD1208 + Foretinib; first compound 8 µM): 0.771 | relative viability (AZD1208 + OSI-027; first compound 0.08 µM): 0.445 | relative viability (AZD1208 + OSI-027; first compound 0.253 µM): 0.38 | relative viability (AZD1208 + OSI-027; first compound 0.8 µM): 0.406 | relative viability (AZD1208 + OSI-027; first compound 2.53 µM): 0.366 | relative viability (AZD1208 + OSI-027; first compound 8 µM): 0.431 | relative viability (AZD1208 + Tozasertib; first compound 0.08 µM): 0.456 | relative viability (AZD1208 + Tozasertib; first compound 0.253 µM): 0.394 | relative viability (AZD1208 + Tozasertib; first compound 0.8 µM): 0.403 | relative viability (AZD1208 + Tozasertib; first compound 2.53 µM): 0.426 | relative viability (AZD1208 + Tozasertib; first compound 8 µM): 0.393 | relative viability (AZD1208 + Dasatinib; first compound 0.08 µM): 0.633 | relative viability (AZD1208 + Dasatinib; first compound 0.253 µM): 0.514 | relative viability (AZD1208 + Dasatinib; first compound 0.8 µM): 0.484 | relative viability (AZD1208 + Dasatinib; first compound 2.53 µM): 0.438 | relative viability (AZD1208 + Dasatinib; first compound 8 µM): 0.632 | relative viability (AZD1208 + Phenformin; first compound 0.08 µM): 0.573 | relative viability (AZD1208 + Phenformin; first compound 0.253 µM): 0.642 | relative viability (AZD1208 + Phenformin; first compound 0.8 µM): 0.593 | relative viability (AZD1208 + Phenformin; first compound 2.53 µM): 0.548 | relative viability (AZD1208 + Phenformin; first compound 8 µM): 0.611
